In the first test the test system is U-2 OS. The experiment in a line: AUC of culture confluence over time (live-cell imaging) (AUC (confluence % x time)); higher = more confluent culture (less growth inhibition). The following applies: 10 µM. The gist of the method:
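Reported values are areas under curves of confluence against time, recorded by live-cell imaging of U-2 OS cells. Cells in F-12K medium with 10% FBS, seeded at 750 per well in 384-well plates, were treated by pin tool 24 h later, most compounds at 20, 10 and 5 μM with 0.2% DMSO. Imaging at 37 °C took place every 4 h for up to 60 h.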
Consider `O=S1(=O)C=C(Sc2nn(-c3ccccc3)c(=S)s2)c2ccccc21`, for which the “AUC of culture confluence over time” value came out at 15.9.

With `C=CC(=O)Nc1ccc(CN2C(=O)N(c3cc(OC)cc(OC)c3)Cc3cnc(Nc4ccc(N5CCN(C)CC5)cc4)nc32)cc1`, the “AUC of culture confluence over time” value came to 37.3.

With `CCCCCCCCCCCCCCCc1cccc(O)c1C(=O)O`, the “AUC of culture confluence over time” value worked out at 53.4.

As to `Cl.Cl.O=C(O)Cn1nnc(-c2ccc(CN(CCCCOc3ccc(CN4CCCC4)cc3)CCc3ccccc3)cc2)n1`, the “AUC of culture confluence over time” value was 49.

With `COc1cc2ncnc(Nc3ccc(F)c(Cl)c3)c2cc1NC(=O)/C=C/CN1CCCCC1`, the “AUC of culture confluence over time” value was 14.6.

Regarding `Cc1cc(-c2ccccc2)cc(C(=O)NNS(=O)(=O)c2ccccc2)c1F`, the “AUC of culture confluence over time” value turned out to be 51.6.

With `Cn1c(=O)n(-c2ccc(C(C)(C)C#N)cc2)c2c3cc(-c4cnc5ccccc5c4)ccc3ncc21`, the “AUC of culture confluence over time” value was found to be 28.4.

For `CCCCCC[C@H]1C(=O)O[C@H](C)[C@H](NC(=O)c2cccc(NC=O)c2O)C(=O)O[C@@H](C)[C@@H]1OC(=O)CC(C)C`, the “AUC of culture confluence over time” value was determined as 38.

As to `COC(=O)[C@]1(C)CC[C@]2(C)CC[C@]3(C)C4=CC=C5C(=CC(=O)C(O)=C5C)[C@]4(C)CC[C@@]3(C)[C@@H]2C1`, the “AUC of culture confluence over time” value is 11.9.

The same test, now with this note: 20 µM.
Turning to `O=C(Nc1nc(-c2ccccc2)ns1)c1cccs1`, the “AUC of culture confluence over time” value was 43.5.

Turning to `Cc1cc2c(C(C)C)c(O)c(O)c(C=O)c2c(O)c1-c1c(C)cc2c(C(C)C)c(O)c(O)c(C=O)c2c1O`, the “AUC of culture confluence over time” value was determined as 32.6.

For the compound `C=CC(=O)Nc1cc(Nc2nccc(-c3cn(C)c4ccccc34)n2)c(OC)cc1N(C)CCN(C)C`, the “AUC of culture confluence over time” value was determined as 7.

In the case of `O=S1(=O)C=Cc2ccccc21`, the “AUC of culture confluence over time” value is 36.8.

Take `CC(=O)c1c(O)c(C)c(O)c(Cc2c(O)c3c(c(C(=O)C=Cc4ccccc4)c2O)OC(C)(C)C=C3)c1O`: the “AUC of culture confluence over time” value is 29.

On to `CC1(C)CC[C@]2(C(=O)n3ccnc3)CC[C@]3(C)[C@H](C(=O)C=C4[C@@]5(C)C=C(C#N)C(=O)C(C)(C)[C@@H]5CC[C@]43C)[C@@H]2C1`, for which the “AUC of culture confluence over time” value is 13.9.

With `COC[C@H]1OC(=O)c2coc3c2[C@@]1(C)C1=C(C3=O)[C@@H]2CCC(=O)[C@@]2(C)C[C@H]1OC(C)=O`, the “AUC of culture confluence over time” value turned out to be 28.4.

On to `c1ccc(Nc2nc(-c3ccccc3)ns2)cc1`, for which the “AUC of culture confluence over time” value was 49.1.

As to `C=CC(=O)Nc1cccc(Oc2nc(Nc3ccc(N4CCN(C)CC4)cc3OC)ncc2Cl)c1`, the “AUC of culture confluence over time” value was 5.33.

For `Cn1nnnc1SC1=CS(=O)(=O)c2ccccc21`, the “AUC of culture confluence over time” value is 12.1.

For `CCC(=O)N1CCN(c2ccc(-n3c(=O)ccc4cnc5ccc(-c6cnc7ccccc7c6)cc5c43)cc2C(F)(F)F)CC1`, the “AUC of culture confluence over time” value was 26.1.

Turning to `O=C1CC(Nc2ccccc2)C(=O)N1Cc1ccccc1` (centres undefined), the “AUC of culture confluence over time” value worked out at 43.1.

In the case of `C[C@@H]1C[C@H]2O[C@@H]2/C=C\C=C\C(=O)Cc2c(Cl)c(O)cc(O)c2C(=O)O1`, the “AUC of culture confluence over time” value is 20.2.

Turning to `C=CC(=O)Nc1cc2c(Nc3ccc(F)c(Cl)c3)ncnc2cc1OCCCN1CCOCC1`, the “AUC of culture confluence over time” value amounted to 9.96.

As for `CNC(=O)Nc1ccc2c(c1)CC[C@@]21OC(=O)N(CC(=O)N(Cc2ccc(F)cc2)[C@@H](C)C(F)(F)F)C1=O`, the “AUC of culture confluence over time” value was 42.6.

As to `O=C(O[C@@H]1Cc2c(O)cc(O)cc2O[C@@H]1c1cc(O)c(O)c(O)c1)c1cc(O)c(O)c(O)c1`, the “AUC of culture confluence over time” value amounted to 48.6.

`O=S1(=O)C=C(Sc2nn(-c3ccccc3)c(=S)s2)c2ccccc21`: the “AUC of culture confluence over time” value amounted to 16.3.

With `C=CC(=O)Nc1ccc(CN2C(=O)N(c3cc(OC)cc(OC)c3)Cc3cnc(Nc4ccc(N5CCN(C)CC5)cc4)nc32)cc1`, the “AUC of culture confluence over time” value came out at 27.8.

For `CCCCCCCCCCCCCCCc1cccc(O)c1C(=O)O`, the “AUC of culture confluence over time” value was determined as 52.9.

As to `Cl.Cl.O=C(O)Cn1nnc(-c2ccc(CN(CCCCOc3ccc(CN4CCCC4)cc3)CCc3ccccc3)cc2)n1`, the “AUC of culture confluence over time” value stood at 47.5.

Consider `COc1cc2ncnc(Nc3ccc(F)c(Cl)c3)c2cc1NC(=O)/C=C/CN1CCCCC1`, for which the “AUC of culture confluence over time” value worked out at 13.7.

As for `Cc1cc(-c2ccccc2)cc(C(=O)NNS(=O)(=O)c2ccccc2)c1F`, the “AUC of culture confluence over time” value was 46.7.

Turning to `Cn1c(=O)n(-c2ccc(C(C)(C)C#N)cc2)c2c3cc(-c4cnc5ccccc5c4)ccc3ncc21`, the “AUC of culture confluence over time” value was 27.6.

`CCCCCC[C@H]1C(=O)O[C@H](C)[C@H](NC(=O)c2cccc(NC=O)c2O)C(=O)O[C@@H](C)[C@@H]1OC(=O)CC(C)C`: the “AUC of culture confluence over time” value was 38.3.

As to `COC(=O)[C@]1(C)CC[C@]2(C)CC[C@]3(C)C4=CC=C5C(=CC(=O)C(O)=C5C)[C@]4(C)CC[C@@]3(C)[C@@H]2C1`, the “AUC of culture confluence over time” value came out at 14.2.

Staying with this test, now noted: 40 µM.
For the compound `Cc1cc2c(C(C)C)c(O)c(O)c(C=O)c2c(O)c1-c1c(C)cc2c(C(C)C)c(O)c(O)c(C=O)c2c1O`, the “AUC of culture confluence over time” value came to 18.2.

With `CC(=O)c1c(O)c(C)c(O)c(Cc2c(O)c3c(c(C(=O)C=Cc4ccccc4)c2O)OC(C)(C)C=C3)c1O`, the “AUC of culture confluence over time” value amounted to 22.2.

Take `O=C(O[C@@H]1Cc2c(O)cc(O)cc2O[C@@H]1c1cc(O)c(O)c(O)c1)c1cc(O)c(O)c(O)c1`: the “AUC of culture confluence over time” value worked out at 41.4.

Consider `CCCCCCCCCCCCCCCc1cccc(O)c1C(=O)O`, for which the “AUC of culture confluence over time” value is 51.2.

Turning to `Cl.Cl.O=C(O)Cn1nnc(-c2ccc(CN(CCCCOc3ccc(CN4CCCC4)cc3)CCc3ccccc3)cc2)n1`, the “AUC of culture confluence over time” value is 19.9.

Staying with this test, now noted: 80 µM.
Regarding `Cc1cc2c(C(C)C)c(O)c(O)c(C=O)c2c(O)c1-c1c(C)cc2c(C(C)C)c(O)c(O)c(C=O)c2c1O`, the “AUC of culture confluence over time” value came out at 18.5.

Consider `CC(=O)c1c(O)c(C)c(O)c(Cc2c(O)c3c(c(C(=O)C=Cc4ccccc4)c2O)OC(C)(C)C=C3)c1O`, for which the “AUC of culture confluence over time” value amounted to 18.2.

For `O=C(O[C@@H]1Cc2c(O)cc(O)cc2O[C@@H]1c1cc(O)c(O)c(O)c1)c1cc(O)c(O)c(O)c1`, the “AUC of culture confluence over time” value worked out at 28.3.

As to `CCCCCCCCCCCCCCCc1cccc(O)c1C(=O)O`, the “AUC of culture confluence over time” value is 40.9.

With `Cl.Cl.O=C(O)Cn1nnc(-c2ccc(CN(CCCCOc3ccc(CN4CCCC4)cc3)CCc3ccccc3)cc2)n1`, the “AUC of culture confluence over time” value is 12.3.

The values are drawn from the supplement of paper PMC10011410.
